# Structures can show the parent of a compound that is named as a salt.
# System: STHdh^Q111 cells
# Test: 384-well PI (propidium iodide) assay, protection from mHTT induced cell death
# Assay type: cell-based, mouse
# Details: compound titrations, serum deprived STHdh^Q111 cells
# Experimental: The well-established STHdh^Q111 cell model for HD was employed to identify compounds that can protect neuronal cells from mHTT-dependent cell death. […] The propidium iodide (PI) readout enables an unbiased assessment of cell death by measuring an irreversible step that is common to all cytotoxic mechanisms.
# The stress conditions for testing compounds involved incubation of the cells in serum-free medium at 37° C. and 5% CO2.
# Prior to compound treatment, medium was removed and the cells washed once with PBS (pH=7.4) after which 45 μl of complete medium was added. Compounds in 5 μl complete medium were added to cells. […] Compounds in serum free medium (5 μl) were added and cells were incubated at 37° C. and 5% CO2.
# Image analysis was carried out using the Multiwavelength Cell Scoring application in the MetaXpress software. The nuclear compartment was identified in Ch1 with a threshold intensity of 2,000 above background and the Texas Red compartment was identified in Ch2 with a threshold intensity of 20,000 above background.
# For the analyses presented here the Percent Recovery was calculated from the Percent PI positive cells by:
# [formula] where positive controls are the STHdh^Q7 cells, and negative controls are the STHdh^Q111 cells treated with DMSO
# The LOPAC library was screened in the 384-well PI assay at 30, 10, and 3 μM.
row,SMILES,neuroprotective activity in the PI assay
1,CN1[C@@H]2CC[C@H]1CC(OC(=O)c1c[nH]c3ccccc13)C2.Cl (stereo partly drawn) [3-tropanyl-indole-3-carboxylate hydrochloride],confirmed neuroprotective activity
2,C/C=C1\C(=O)C[C@H]2[C@@H]3CCC4=CC(=O)CC[C@]4(C)[C@H]3CC[C@]12C [(Z)-Gugglesterone],confirmed neuroprotective activity
3,CC(=O)Nc1nnc(S(N)(=O)=O)s1 [Acetazolamide],did not protect
4,C[C@H]1C[C@H]2[C@@H]3CCC4=CC(=O)C=C[C@]4(C)[C@@]3(Cl)[C@@H](O)C[C@]2(C)[C@@]1(O)C(=O)CO [Beclomethasone],confirmed neuroprotective activity
5,CCN[C@H]1CN(CCCOC)S(=O)(=O)c2sc(S(N)(=O)=O)cc21 [Brinzolamide],did not protect
6,CN1CCC(=C2c3ccccc3C=Cc3ccccc32)CC1 [Cyproheptadine hydrochloride],confirmed neuroprotective activity
7,CCN[C@H]1C[C@H](C)S(=O)(=O)c2sc(S(N)(=O)=O)cc21 [Dorzolamide],did not protect
8,CCOc1ccc2nc(S(N)(=O)=O)sc2c1 [Ethoxzolamide],confirmed neuroprotective activity
9,C[C@]12CCC(=O)C=C1CC[C@@H]1[C@@H]2[C@@H](O)C[C@@]2(C)[C@H]1CC[C@]2(O)C(=O)CO [Hydrocortisone],confirmed neuroprotective activity
10,Cc1c(OCC(F)(F)F)ccnc1C[S+]([O-])c1nc2ccccc2[nH]1 (stereo not drawn) [Lansoprazole],confirmed neuroprotective activity
11,O=C(O)c1nn(Cc2ccc(Cl)cc2Cl)c2ccccc12 [Lonidamine],confirmed neuroprotective activity
12,Cc1cccc(CN2CCN(C(c3ccccc3)c3ccc(Cl)cc3)CC2)c1 (stereo not drawn) [Meclizine],confirmed neuroprotective activity
13,"Cc1cccc(C(=O)NCN2CCN(c3ccccc3C#N)CC2)c1.O=C(O)/C=C\C(=O)O [PD 168,077 maleate]",confirmed neuroprotective activity
14,C[C@]12C=CC(=O)C=C1CC[C@@H]1[C@@H]2[C@@H](O)C[C@@]2(C)[C@H]1CC[C@]2(O)C(=O)CO [Prednisolone],confirmed neuroprotective activity
15,"CN1CCN(c2ccc3ccccc3n2)CC1.O=C(O)/C=C\C(=O)O.O=C(O)/C=C\C(=O)O [Quipazine, N-methyl-, dimaleate]",confirmed neuroprotective activity
16,N.N.N.N.N.N.N.N.N.N.N.N.N.N.[Cl-].[Cl-].[Cl-].[Cl-].[Cl-].[Cl-].[O-2].[O-2].[Ru+3].[Ru+3].[Ru+4] [Ruthenium red],confirmed neuroprotective activity
17,O=C(OCCN1CCCCC1)c1c[nH]c2ccccc12 [SB 203186],confirmed neuroprotective activity
18,C[C@]12C=CC(=O)C=C1CC[C@H]1[C@@H]3C[C@@H](O)[C@](O)(C(=O)CO)[C@@]3(C)C[C@H](O)[C@@]12F [Triamcinolone],confirmed neuroprotective activity
19,Cc1ccc(/C(=C\CN2CCCC2)c2ccccn2)cc1 [Triprolidine hydrochloride],confirmed neuroprotective activity
20,Cc1c(C)c2c(c(C)c1O)CCC(C)(CN1CCN(c3cc(N4CCCC4)nc(N4CCCC4)n3)CC1)O2.Cl.Cl (stereo not drawn) [U-83836 dihydrochloride],confirmed neuroprotective activity
21,CCOC(=O)C1=C[C@]2(CC)CCCN3CCc4c(n1c1ccccc41)[C@@H]32 [Vinpocetine],confirmed neuroprotective activity
